Read-outs that look alike come from different tables or passages of the source.
What was measured:
[1] = tested on: CD25-positive leukemia and lymphoma cell lines, SU-DHL-1, HDLM-2, EoL-1, L-540, and Karpas 299; test: In vitro cytotoxicity, range over the five cell lines; format: cell-based; details: read-out: IC50 concentrations (range across assays)
Experimental: (§1) The CD25-positive leukemia and lymphoma cell lines, SU-DHL-1, HDLM-2, EoL-1, L-540, and Karpas 299, were obtained from the ATCC and DSMZ cell banks, or were tested at Crown Bioscience, Inc. The cells were maintained in RPMI-1640 medium (Cellgro) supplemented with 10 or 20% fetal bovine serum (Invitrogen) and Glutamax (Invitrogen). 24 h prior to plating, cells were passaged to ensure log-phase growth. On the day of plating, 5000 cells/well were seeded onto 96-well plates in 100 μL normal growth medium supplemented with 10 IU penicillin and 10 μg/mL streptomycin (Cellgro). Cells were treated at various concentrations with 20 μL of diluted analytes, and the plates were incubated at 37° C. in an atmosphere of 5% CO2. After 5 d, 100 μL/well of Cell Titer-Glo reagent (Promega) was added, and luminescence was measured using a Molecular Devices SpectraMax M5 plate reader. GraphPad Prism software was used for data analysis.

L-540 cells = test: In vitro cytotoxicity (Cell Titer-Glo, 5 d); format: cell-based; details: L-540 cell line, 5 d incubation, FIG. 9
Experimental: as §1

HDLM-2 cells = test: In vitro cytotoxicity (Cell Titer-Glo, 5 d); format: cell-based; details: HDLM-2 cell line, 5 d incubation, FIG. 7
Experimental: as §1

SU-DHL-1 cells = test: In vitro cytotoxicity (Cell Titer-Glo, 5 d); format: cell-based; details: SU-DHL-1 cell line, 5 d incubation, FIG. 6
Experimental: as §1

EoL-1 cells = test: In vitro cytotoxicity (Cell Titer-Glo, 5 d); format: cell-based; details: EoL-1 cell line, 5 d incubation, FIG. 8
Experimental: as §1

Karpas 299 cells = test: In vitro cytotoxicity (Cell Titer-Glo, 5 d); format: cell-based; details: Karpas 299 cell line, 5 d incubation, FIG. 10
Experimental: as §1

Karpas 299 xenograft = Karpas 299 xenograft study; format: in vivo, Female CB17.SCID mice; details: 10 mg/kg intravenously, single dose or qwk×4; at 28 days; subcutaneous Karpas 299 tumors, FIG. 11
Experimental: Female CB17.SCID mice (6/group) were inoculated subcutaneously with 5×10^6 Karpas 299 cells. Treatment began when the tumors reached an average of 205 mm^3, at which time the animals were dosed intravenously with vehicle alone or the anti-CD25 HIPS-4AP-maytansine conjugate (10 mg/kg). One group received a single dose of the anti-CD25 HIPS-4AP-maytansine conjugate, while another group was dosed once per week for a total of four doses (qwk×4). The animals were monitored twice weekly for body weight and tumor size. Animals were euthanized when tumors reached 2000 mm^3.

`COc1cc2cc(c1Cl)N(C)C(=O)C[C@H](OC(=O)[C@H](C)N(C)C(C)=O)[C@]1(C)O[C@H]1[C@H](C)[C@@H]1C[C@@](O)(NC(=O)O1)[C@H](OC)/C=C/C=C(\C)C2` [free maytansine, maytansine] showed an IC50 ([1]; 120 h) of 30 to 190 pM.
“anti-CD25 HIPS-4AP-maytansine conjugate: C-terminally aldehyde-tagged anti-CD25 antibody (daclizumab) conjugated to a maytansine payload attached to a HIPS-4AP linker; DAR 1.75-1.84” gave an IC50 (L-540 cells) of 430 pM, an IC50 (HDLM-2 cells) of 60 pM and an IC50 (SU-DHL-1 cells) of 240 pM. For the same compound, the IC50 (EoL-1 cells) was 70 pM, the IC50 (Karpas 299 cells) was 490 pM and the “detectable tumors at median time to endpoint of vehicle control groups” value (Karpas 299 xenograft) was “none of the animals that had been dosed with the anti-CD25 HIPS-4AP-maytansine conjugate had detectable tumors”. For the same compound, the IC50 ([1]; range over all five tested cell lines, 5 d incubation) was 60 to 490 pM.
